Columns and labels:
[1] = target: T1, binding between p34 protein and NEDD4-1 protein (Homo sapiens, UniProt P46934+Q9UHV2); assay: Inhibitory activity on binding between p34 and NEDD4-1, FRET (HTRF) assay; conditions: 1×PBS pH 7.4, 0.1% BSA, 2% DMSO, 384-well; for inhibition at 10 µM: pH 7.4, compound 10 μM; for FRET result (Inhibition % @10 μM): compound 10 μM
T1 construct: FLAG or 6xHis (known only from the detection antibodies)
T1 sequence (P46934 1-1319): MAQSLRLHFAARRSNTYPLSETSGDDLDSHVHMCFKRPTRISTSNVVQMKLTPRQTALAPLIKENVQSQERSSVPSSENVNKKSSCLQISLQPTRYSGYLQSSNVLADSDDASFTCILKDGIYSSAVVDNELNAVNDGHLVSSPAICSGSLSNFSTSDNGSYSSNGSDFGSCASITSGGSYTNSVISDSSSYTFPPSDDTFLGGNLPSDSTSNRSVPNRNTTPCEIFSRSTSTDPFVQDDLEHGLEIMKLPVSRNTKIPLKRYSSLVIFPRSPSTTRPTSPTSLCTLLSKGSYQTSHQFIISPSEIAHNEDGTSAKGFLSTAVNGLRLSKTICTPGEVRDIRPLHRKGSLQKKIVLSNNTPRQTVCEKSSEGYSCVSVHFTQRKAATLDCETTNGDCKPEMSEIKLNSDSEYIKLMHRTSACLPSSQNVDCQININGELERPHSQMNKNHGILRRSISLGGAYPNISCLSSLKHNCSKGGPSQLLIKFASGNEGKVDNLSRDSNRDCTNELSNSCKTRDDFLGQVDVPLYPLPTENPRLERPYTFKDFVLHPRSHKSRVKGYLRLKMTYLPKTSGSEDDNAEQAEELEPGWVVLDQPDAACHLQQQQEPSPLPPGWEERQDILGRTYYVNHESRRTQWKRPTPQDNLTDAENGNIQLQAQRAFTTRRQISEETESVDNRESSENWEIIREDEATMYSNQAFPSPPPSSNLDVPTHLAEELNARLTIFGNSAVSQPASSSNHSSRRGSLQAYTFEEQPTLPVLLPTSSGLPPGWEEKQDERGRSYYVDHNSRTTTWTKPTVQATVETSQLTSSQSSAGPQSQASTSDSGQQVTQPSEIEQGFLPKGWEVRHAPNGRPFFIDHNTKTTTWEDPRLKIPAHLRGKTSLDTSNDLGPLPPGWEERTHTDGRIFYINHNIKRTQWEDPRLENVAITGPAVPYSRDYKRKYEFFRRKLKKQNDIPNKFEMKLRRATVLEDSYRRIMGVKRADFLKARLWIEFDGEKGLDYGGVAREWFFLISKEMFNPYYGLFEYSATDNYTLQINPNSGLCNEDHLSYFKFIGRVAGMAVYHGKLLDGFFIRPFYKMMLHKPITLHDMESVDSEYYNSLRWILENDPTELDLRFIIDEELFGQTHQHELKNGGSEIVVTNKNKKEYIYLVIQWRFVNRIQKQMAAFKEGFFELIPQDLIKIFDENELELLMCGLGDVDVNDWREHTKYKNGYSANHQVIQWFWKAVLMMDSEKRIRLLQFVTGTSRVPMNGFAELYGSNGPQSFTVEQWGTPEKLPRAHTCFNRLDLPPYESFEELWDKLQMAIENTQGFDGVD
T1 sequence (Q9UHV2 1-236): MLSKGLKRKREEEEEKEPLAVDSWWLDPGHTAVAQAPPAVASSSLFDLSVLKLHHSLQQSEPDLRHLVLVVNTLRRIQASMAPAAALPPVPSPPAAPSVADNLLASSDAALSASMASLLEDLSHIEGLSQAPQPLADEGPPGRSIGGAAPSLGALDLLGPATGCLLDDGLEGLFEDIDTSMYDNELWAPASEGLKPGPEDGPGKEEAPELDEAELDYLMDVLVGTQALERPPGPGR
Method: Inhibitory activity of the compound on binding between p34 and NEDD4-1 was evaluated using p34 protein and NEDD4-1 protein based on the HTRF technology developed by Cisbio. In this assay, a fluorescence resonance energy transfer (FRET) signal was measured in the presence of terbium-labeled anti-FLAG antibody and d2-labeled anti-6XHis antibody. Experiments were performed in 384-well plates under a condition of 1×PBS pH 7.4, 0.1% BSA, and 2% DMSO. A background signal was measured in the absence of the p34-NEDD4-1 proteins, and a non-inhibiting signal was measured with addition of only a solvent (2% DMSO). […] Subsequently, inhibitory activity of the compound on p34-NEDD4-1 was calculated in %.

[2] = system: PTEN (lipid phosphatase activity) in human colon cancer cell line SW620; assay: cells; format: cell-based; conditions: compound 5 μM, PTEN immunoprecipitation, diC8-PIP3 substrate, Biomol Green; for fold induction at 5 µM: Homo sapiens, SW-620, 48 h, read-out: PTEN activity (relative fold @5 μM)

## O=C(NCc1nc2cc(F)c(F)cc2[nH]1)C1CCN(Cc2ccc3[nH]ccc3c2)CC1 [Example 16]
[1]
  inhibition at 10 µM: 47.2%
[2]
  fold induction at 5 µM: 1.5

## O=C(C1CCN(Cc2ccc3[nH]ccc3c2)CC1)N1CCn2cc(C(F)(F)F)nc2C1 [Example 17]
[1]
  inhibition at 10 µM: 48%
[2]
  fold induction at 5 µM: 2.2

## CCC(NC(=O)C1CCN(Cc2c[nH]c3ccc(C(F)(F)F)cc23)CC1)c1nc2ccccc2[nH]1 (stereo not shown) [Example 35]
[1]
  inhibition at 10 µM: 45.5%
[2]
  fold induction at 5 µM: 1.5

## CC(NC(=O)C1CCN(Cc2c[nH]c3ccc(Cl)cc23)CC1)c1nc2ccccc2[nH]1 (stereo not shown) [Example 5]
[2]
  fold induction at 5 µM: 1.5

## Cc1cc2nc(CNC(=O)C3CCN(Cc4c[nH]c5ccc(Cl)cc45)CC3)[nH]c2cc1C [Example 3]
[2]
  fold induction at 5 µM: 1.5

## O=C(NCc1cnccn1)C1CCN(Cc2ccc3[nH]ccc3c2)CC1 [Example 26]
[1]
  inhibition at 10 µM: 42%

## O=C(NCc1nccs1)C1CCN(Cc2ccc3[nH]ccc3c2)CC1 [Example 19]
[1]
  FRET result (Inhibition % @10 μM): 32.1%
[2]
  fold induction at 5 µM: 2.5

## O=C(NCc1cncs1)N1CCN(Cc2c[nH]c3ccc(F)cc23)CC1 [Example 86]
[1]
  inhibition at 10 µM: 41.6%
[2]
  fold induction at 5 µM: 2

## O=C(NCc1nc2cc(F)c(F)cc2[nH]1)C1CCN(Cc2c[nH]c3ccc(C(F)(F)F)cc23)CC1 [Example 39]
[1]
  inhibition at 10 µM: 37.7%
[2]
  fold induction at 5 µM: 1.6

## O=C(NCc1ncc[nH]1)C1CCN(Cc2c[nH]c3ccc(Cl)cc23)CC1 [Example 9]
[1]
  inhibition at 10 µM: 58.4%

## O=C(NCc1nc2cc(F)ccc2[nH]1)C1CCN(Cc2c[nH]c3ccc(C(F)(F)F)cc23)CC1 [Example 37]
[1]
  inhibition at 10 µM: 39.4%
[2]
  fold induction at 5 µM: 1.5

## O=C(NCc1nc2ccccc2o1)C1CCN(Cc2c[nH]c3ccc(C(F)(F)F)cc23)CC1 [Example 32]
[1]
  inhibition at 10 µM: 61.1%
[2]
  fold induction at 5 µM: 1.8

## O=C(Nc1ncccn1)N1CCN(Cc2ccc3[nH]ccc3c2)CC1 [Example 73]
[1]
  inhibition at 10 µM: 53.5%
[2]
  fold induction at 5 µM: 2.1

## O=C(Nc1ccccc1)N1CCN(Cc2ccc3[nH]ccc3c2)CC1 [Example 77]
[1]
  inhibition at 10 µM: 35.3%
[2]
  fold induction at 5 µM: 1.8

## CC(NC(=O)C1CCN(Cc2c[nH]c3ccccc23)CC1)c1nc2ccccc2[nH]1 (stereo not shown) [Example 49]
[2]
  fold induction at 5 µM: 1.9

## O=C(NCc1nccs1)C1CCN(Cc2c[nH]c3ccc(Cl)cc23)CC1 [Example 11]
[1]
  inhibition at 10 µM: 39.1%

## O=C(NCc1nc2ccccc2[nH]1)C1CCN(Cc2c[nH]c3ccc(C(F)(F)F)cc23)CC1 [Example 41]
[1]
  inhibition at 10 µM: 42.8%

## Cc1[nH]c2ccc(CN3CCN(C(=O)NCc4nccs4)CC3)cc2c1C [Example 88]
[2]
  fold induction at 5 µM: 2.2

## O=C(NCc1cnccn1)C1CCN(Cc2c[nH]c3ccc(Cl)cc23)CC1 [Example 10]
[1]
  inhibition at 10 µM: 39%

## O=C(NCc1nc2ccccc2[nH]1)C1CCN(Cc2c[nH]c3ccc(F)cc23)CC1 [Example 47]
[1]
  inhibition at 10 µM: 30.5%

## O=C(NCc1nc2cc(F)ccc2[nH]1)C1CCN(Cc2c[nH]c3ccc(Cl)cc23)CC1 [Example 6]
[1]
  inhibition at 10 µM: 36.6%
[2]
  fold induction at 5 µM: 3

## CC(NC(=O)C1CCN(Cc2c[nH]c3ccc(F)cc23)CC1)c1nc2ccccc2[nH]1 (stereo not shown) [Example 50]
[2]
  fold induction at 5 µM: 2.6

## CN(Cc1nc2ccccc2n1C)C(=O)N1CCN(Cc2c[nH]c3ccc(Cl)cc23)CC1 [Example 69]
[2]
  fold induction at 5 µM: 1.6

## Cn1c(CNC(=O)N2CCN(Cc3c[nH]c4ccc(Cl)cc34)CC2)nc2ccccc21 [Example 63]
[1]
  inhibition at 10 µM: 52.3%

## Cc1ccc2nc(C(C)NC(=O)C3CCN(Cc4c[nH]c5ccccc45)CC3)[nH]c2c1 (stereo not shown) [Example 56]
[1]
  inhibition at 10 µM: 56.2%

## O=C(NCc1nc2ccccc2[nH]1)N1CCN(Cc2c[nH]c3ccc(Cl)cc23)CC1 [Example 75]
[1]
  inhibition at 10 µM: 52.4%

## Cc1ccc2nc(C(C)NC(=O)C3CCN(Cc4c[nH]c5ccc(Cl)cc45)CC3)[nH]c2c1 (stereo not shown) [Example 2]
[1]
  inhibition at 10 µM: 42.4%

## O=C(NCc1ncc[nH]1)C1CCN(Cc2ccc3[nH]ccc3c2)CC1 [Example 15]
[1]
  inhibition at 10 µM: 60.4%

## O=C(NCc1nccs1)N1CCN(Cc2c[nH]c3ccc(Cl)cc23)CC1 [Example 76]
[2]
  fold induction at 5 µM: 1.7

## O=C(NCc1nccs1)C1CCN(Cc2ccc3[nH]ccc3c2)CC1 [Example 12]
[1]
  inhibition at 10 µM: 39.2%

## CCC(NC(=O)C1CCN(Cc2c[nH]c3ccc(Cl)cc23)CC1)c1nc2ccccc2[nH]1 (stereo not shown) [Example 7]
[1]
  inhibition at 10 µM: 59%

## CN(Cc1nc2ccccc2n1C)C(=O)N1CCN(Cc2c[nH]c3ccc(Cl)cc23)CC1 [Example 70]
[2]; 48 hours
  PTEN activity (relative fold @5 μM): 2.1 fold

## O=C(NCc1nc2cc(F)c(F)cc2[nH]1)C1CCN(Cc2c[nH]c3ccc(F)cc23)CC1 [Example 48]
[2]
  fold induction at 5 µM: 1.6

## O=C(NCc1nc2cc(F)c(F)cc2[nH]1)C1CCN(Cc2c[nH]c3ccccc23)CC1 [Example 53]
[2]
  fold induction at 5 µM: 1.8

## Cn1cc(CN2CCC(C(=O)NCc3nc4ccccc4[nH]3)CC2)c2cc(F)ccc21 [Example 51]
[1]
  inhibition at 10 µM: 56.2%

## CCC(NC(=O)C1CCN(Cc2ccc3[nH]ccc3c2)CC1)c1nc2ccccc2[nH]1 (stereo not shown) [Example 24]
[1]
  inhibition at 10 µM: 53%

## Cn1c(CNC(=O)C2CCN(Cc3ccc4[nH]ccc4c3)CC2)nc2ccccc21 [Example 27]
[2]
  fold induction at 5 µM: 1.8

## Cn1c(CNC(=O)C2CCN(Cc3c[nH]c4ccccc34)CC2)nc2ccccc21 [Example 46]
[1]
  inhibition at 10 µM: 42.9%

## O=C(NCc1nc2ccccc2[nH]1)C1CCN(Cc2c[nH]cn2)CC1 [Example 22]
[1]
  inhibition at 10 µM: 48.1%

## CC(NC(=O)N1CCN(Cc2c[nH]c3ccc(Cl)cc23)CC1)c1nc2ccccc2[nH]1 (stereo not shown) [Example 65]
[1]
  inhibition at 10 µM: 53.1%

## O=C(NC(Cc1ccccc1)c1nc2ccccc2[nH]1)C1CCN(Cc2ccc3[nH]ccc3c2)CC1 (stereo not shown) [Example 21]
[1]
  inhibition at 10 µM: 56.6%

## O=C(NCc1nccs1)C1CCN(C(=O)c2ccc3[nH]ccc3c2)CC1 [Example 28]
[1]
  inhibition at 10 µM: 34.5%

## O=C(NCc1cnccn1)C1CCN(Cc2c[nH]c3ccc(C(F)(F)F)cc23)CC1 [Example 38]
[1]
  inhibition at 10 µM: 36.6%

## CN(Cc1nc2ccccc2[nH]1)C(=O)C1CCN(Cc2c[nH]c3ccccc23)CC1 [Example 52]
[1]
  inhibition at 10 µM: 32.4%

## Cn1c(CNC(=O)C2CCN(Cc3c[nH]c4ccc(C(F)(F)F)cc34)CC2)nc2ccccc21 [Example 40]
[1]
  inhibition at 10 µM: 42.8%

## O=C(NCc1nc2ccccc2[nH]1)C1CCN(Cc2c[nH]c3ccc(C(F)(F)F)cc23)CC1 [Example 8]
[1]
  FRET result (Inhibition % @10 μM): 49.4%

## O=C(NCc1cncs1)C1CN(Cc2c[nH]c3ccc(C(F)(F)F)cc23)C1 [Example 36]
[2]
  fold induction at 5 µM: 1.7

## O=C(NCc1nc2ccccc2[nH]1)C1CCN(Cc2ccc3[nH]ccc3c2)CC1 [Example 23]
[1]
  inhibition at 10 µM: 38.2%

## O=C(NCc1nc2ccccc2[nH]1)C1CCN(Cc2c[nH]c3cc(F)c(F)cc23)CC1 [Example 60]
[1]
  inhibition at 10 µM: 38.4%

## Cn1cc(CN2CCC(C(=O)NCc3nc4ccccc4[nH]3)CC2)c2ccccc21 [Example 59]
[2]
  fold induction at 5 µM: 2
